Experimental data: patent publication US10781181B2, “N-((het) arylmethyl)-heteroaryl-carboxamides compounds as plasma kallikrein inhibitors” (Kalvista Pharmaceuticals Limited, priority 2014, dated 2020)
pIC50: −log10 of the molar value.

Key:
Type in all cases: biochemical
Human plasma kallikrein = Human plasma kallikrein (Homo sapiens (Human), UniProt P03952); assay: Determination of the IC50 for plasma kallikrein; settings: read-out: IC50 (human PKal)
Procedure: Determination of the IC50 for Plasma Kallikrein
(§1) Human plasma kallikrein (Protogen) was incubated at 25° C. with the fluorogenic substrate H-DPro-Phe-Arg-AFC and various concentrations of the test compound. Residual enzyme activity (initial rate of reaction) was determined by measuring the change in […] at 410 nm and the IC50 value for the test compound was determined.

Human KLK1 = Human KLK1 (Homo sapiens (Human), UniProt P06870); assay: Determination of the IC50 for KLK1; settings: human KLK1, 25° C., substrate H-DVal-Leu-Arg-AFC
Chain of Human KLK1 (P06870 25-262): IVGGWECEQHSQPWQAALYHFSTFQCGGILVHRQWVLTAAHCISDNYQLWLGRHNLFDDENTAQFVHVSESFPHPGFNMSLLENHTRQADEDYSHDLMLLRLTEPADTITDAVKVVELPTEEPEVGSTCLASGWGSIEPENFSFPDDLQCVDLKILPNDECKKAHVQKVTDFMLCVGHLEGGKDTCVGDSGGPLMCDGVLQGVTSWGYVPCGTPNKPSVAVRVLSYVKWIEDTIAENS
Procedure: Determination of the IC50 for KLK1
as §1, with “KLK1 (Callbiochem)” for “plasma kallikrein (Protogen)”, “H-DVal-Leu-Arg-AFC” for “H-DPro-Phe-Arg-AFC”

Human FXIa = Human FXIa (Homo sapiens (Human), UniProt P03951); assay: Determination of the % inhibition for FXIa; settings: 40 μM of the test compound, human FXIa, 25° C.; read-out: % Inhibition @ 40 μM (human FXIa)
Chain of Human FXIa (P03951 388-625 limits assumed): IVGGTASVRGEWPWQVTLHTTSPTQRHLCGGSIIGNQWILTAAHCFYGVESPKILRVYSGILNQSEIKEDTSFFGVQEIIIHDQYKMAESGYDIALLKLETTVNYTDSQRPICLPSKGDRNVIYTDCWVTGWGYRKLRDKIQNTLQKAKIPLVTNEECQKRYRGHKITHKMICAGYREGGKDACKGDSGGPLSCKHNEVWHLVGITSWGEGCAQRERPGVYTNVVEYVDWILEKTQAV
Chain of Human FXIa (P03951 19-387 partner limits assumed): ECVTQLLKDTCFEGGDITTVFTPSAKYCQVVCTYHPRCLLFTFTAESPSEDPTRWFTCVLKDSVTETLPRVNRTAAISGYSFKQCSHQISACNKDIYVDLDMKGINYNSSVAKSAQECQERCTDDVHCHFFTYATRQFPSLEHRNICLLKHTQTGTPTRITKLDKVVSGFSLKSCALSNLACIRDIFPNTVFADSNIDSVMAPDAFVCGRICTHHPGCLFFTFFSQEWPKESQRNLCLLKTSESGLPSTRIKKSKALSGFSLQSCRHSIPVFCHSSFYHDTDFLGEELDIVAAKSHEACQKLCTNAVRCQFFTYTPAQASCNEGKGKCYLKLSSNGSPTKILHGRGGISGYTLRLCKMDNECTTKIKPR
Procedure: Determination of the % Inhibition for FXIa
Human FXIa (Enzyme Research Laboratories) was incubated at 25° C. with the fluorogenic substrate Z-Gly-Pro-Arg-AFC and 40 μM of the test compound. Residual enzyme activity (initial rate of reaction) was determined by measuring the change in […].

Chain of Human plasma kallikrein (P03952 391-638): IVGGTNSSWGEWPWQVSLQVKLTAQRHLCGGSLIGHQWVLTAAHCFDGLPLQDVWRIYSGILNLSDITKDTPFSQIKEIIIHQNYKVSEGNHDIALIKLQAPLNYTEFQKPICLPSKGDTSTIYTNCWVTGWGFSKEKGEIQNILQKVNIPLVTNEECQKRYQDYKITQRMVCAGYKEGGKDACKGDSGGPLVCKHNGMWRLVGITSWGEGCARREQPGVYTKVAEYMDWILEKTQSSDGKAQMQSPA
Chain of Human plasma kallikrein (P03952 20-390 partner): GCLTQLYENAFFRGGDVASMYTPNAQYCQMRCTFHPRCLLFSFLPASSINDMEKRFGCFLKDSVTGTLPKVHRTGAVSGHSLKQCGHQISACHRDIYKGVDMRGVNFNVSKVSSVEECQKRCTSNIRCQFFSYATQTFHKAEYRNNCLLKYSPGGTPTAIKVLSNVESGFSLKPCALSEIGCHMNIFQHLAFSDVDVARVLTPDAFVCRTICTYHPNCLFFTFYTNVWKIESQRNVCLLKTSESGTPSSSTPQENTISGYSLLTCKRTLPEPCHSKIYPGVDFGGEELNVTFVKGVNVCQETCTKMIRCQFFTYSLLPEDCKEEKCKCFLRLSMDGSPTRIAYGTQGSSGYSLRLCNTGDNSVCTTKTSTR

| SMILES | pIC50 (Human plasma kallikrein) | pIC50 (Human KLK1) | inhibition at 40 µM (Human FXIa) [%] |
| --- | --- | --- | --- |
| Nc1nn(Cc2ccc(-c3cccnc3)nc2)cc1C(=O)NCCOc1cccc(Cl)c1 [Example 97, 3-amino-N-[2-(3-chlorophenoxy)ethyl]-1-{[6-(pyridin-3-yl)pyridin-3-yl]methyl}pyrazole-4-carboxamide] | 5.95 | < 4.40 |  |
| CN(CCNC(=O)c1cn(Cc2ccc(Cn3ccccc3=O)cc2)nc1N)c1cccc(Cl)c1 [Example 41, 3-amino-N-{2-[(3-chlorophenyl)(methyl)amino]ethyl}-1-({4-[(2-oxopyridin-1-yl)methyl]phenyl}methyl)pyrazole-4-carboxamide] | 6.58 | < 4.40 | 0 |
| COCc1nn(Cc2ccc(Cn3ccccc3=O)cc2)cc1C(=O)NCCOc1cc(F)cc(Cl)c1 [Example 10, N-[2-(3-chloro-5-fluorophenoxy)ethyl]-3-(methoxymethyl)-1-({4-[(2-oxopyridin-1-yl)methyl]phenyl}methyl)pyrazole-4-carboxamide] | 6.87 | < 5.00 | 0 |
| Cc1nn(Cc2ccc(Cn3ccccc3=O)cc2)cc1C(=O)NCCOc1cccc(Cl)c1 [Example 39, N-[2-(3-chlorophenoxy)ethyl]-3-methyl-1-({4-[(2-oxopyridin-1-yl)methyl]phenyl}methyl)pyrazole-4-carboxamide] | 7.79 | < 4.40 |  |
| Nc1nn(Cc2ccc(Cn3c(F)cccc3=O)cc2)cc1C(=O)NCCOc1cccc(Cl)c1 [Example 99, 3-amino-N-[2-(3-chlorophenoxy)ethyl]-1-({4-[(2-fluoro-6-oxopyridin-1-yl)methyl]phenyl}methyl)pyrazole-4-carboxamide] | 5.68 | < 4.40 |  |
| CN(C)C(=O)c1ccc(Cn2cc(C(=O)NCCOc3cccc(Cl)c3)c(N)n2)cc1 [Example 59, 3-amino-N-[2-(3-chlorophenoxy)ethyl]-1-{[4-(dimethylcarbamoyl)phenyl]methyl}pyrazole-4-carboxamide] | < 5.00 | < 4.40 |  |
| CN(C)C(=O)c1cccc(Cn2cc(C(=O)NCCOc3cccc(Cl)c3)c(N)n2)c1 [Example 65, 3-amino-N-[2-(3-chlorophenoxy)ethyl]-1-{[3-(dimethylcarbamoyl)phenyl]methyl}pyrazole-4-carboxamide] | < 5.00 | < 4.40 |  |
| Nc1c(C(=O)NCCOc2cccc(Cl)c2)cnn1Cc1ccc2[nH]ncc2c1 [Example 44, 5-amino-N-[2-(3-chlorophenoxy)ethyl]-1-(1H-indazol-5-ylmethyl)pyrazole-4-carboxamide] | < 5.00 | < 4.40 |  |
| Nc1nn(Cc2ccc(Cn3ccccc3=O)cc2)cc1C(=O)NCC(=O)Nc1ccc(Cl)cc1 [Example 4, 2-{[3-amino-1-({4-[(2-oxopyridin-1-yl)methyl]phenyl}methyl)pyrazol-4-yl]formamido}-N-(4-chlorophenyl)acetamide] | < 5.00 | < 5.00 |  |
| Cc1nc(C(=O)NCCOc2cccc(Cl)c2)cn1Cc1ccc(Cn2ccccc2=O)cc1 [Example 43, N-[2-(3-chlorophenoxy)ethyl]-2-methyl-1-({4-[(2-oxopyridin-1-yl)methyl]phenyl}methyl)imidazole-4-carboxamide] | 7.11 | < 5.00 |  |
| Nc1nn(Cc2cccc(C(=O)O)c2)cc1C(=O)NCCOc1cccc(Cl)c1 [Example 63, 3-[(3-amino-4-{[2-(3-chlorophenoxy)ethyl]carbamoyl}pyrazol-1-yl)methyl]benzoic acid] | < 5.00 | < 4.40 |  |
| COCc1nn(Cc2ccc(Cn3ccc(C)cc3=O)cc2)cc1C(=O)NCCOc1cccc(Cl)c1 [Example 104, N-[2-(3-chlorophenoxy)ethyl]-3-(methoxymethyl)-1-({4-[(4-methyl-2-oxopyridin-1-yl)methyl]phenyl}methyl)pyrazole-4-carboxamide] | 6.38 | < 4.40 |  |
| Nc1c(C(=O)NCCOc2cccc(Cl)c2)cnn1Cc1ccc(C(=O)N2CCCC2)cc1 [Example 45, 5-amino-N-[2-(3-chlorophenoxy)ethyl]-1-({4-[(pyrrolidin-1-yl)carbonyl]phenyl}methyl)pyrazole-4-carboxamide] | 5.20 | < 4.40 |  |
| Nc1nn(Cc2ccc(Cn3ccccc3=O)cn2)cc1C(=O)NCCOc1cccc(Cl)c1 [Example 102, 3-amino-N-[2-(3-chlorophenoxy)ethyl]-1-({5-[(2-oxopyridin-1-yl)methyl]pyridin-2-yl}methyl)pyrazole-4-carboxamide] | 7.14 | < 4.40 |  |
| Cc1nn(Cc2ccc(Cn3ccccc3=O)cc2)c(C)c1C(=O)NCCOc1cccc(Cl)c1 [Example 103, N-[2-(3-chlorophenoxy)ethyl]-3,5-dimethyl-1-({4-[(2-oxopyridin-1-yl)methyl]phenyl}methyl)pyrazole-4-carboxamide] | < 5.00 | < 4.40 |  |
| Nc1nn(Cc2ccc(Cn3ccccc3=O)cc2F)cc1C(=O)NCCOc1cccc(Cl)c1 [Example 101, 3-amino-N-[2-(3-chlorophenoxy)ethyl]-1-({2-fluoro-4-[(2-oxopyridin-1-yl)methyl]phenyl}methyl)pyrazole-4-carboxamide] | 8.12 | < 4.40 |  |
| COc1cc(Cn2cc(C(=O)NCCOc3cccc(Cl)c3)c(N)n2)ccc1Cn1ccccc1=O [Example 98, 3-amino-N-[2-(3-chlorophenoxy)ethyl]-1-({3-methoxy-4-[(2-oxopyridin-1-yl)methyl]phenyl}methyl)pyrazole-4-carboxamide] | 8.03 | < 4.40 |  |
| COCc1nn(Cc2ccc(Cn3ccccc3=O)cc2)cc1C(=O)NCCOc1cc(Cl)cc(OC)c1 [Example 11, N-[2-(3-chloro-5-methoxyphenoxy)ethyl]-3-(methoxymethyl)-1-({4-[(2-oxopyridin-1-yl)methyl]phenyl}methyl)pyrazole-4-carboxamide] | < 5.00 | < 5.00 |  |
| Nc1nn(Cc2ccnc(N3CCCC3=O)c2)cc1C(=O)NCCOc1cccc(Cl)c1 [Example 94, 3-amino-N-[2-(3-chlorophenoxy)ethyl]-1-{[2-(2-oxopyrrolidin-1-yl)pyridin-4-yl]methyl}pyrazole-4-carboxamide] | 5.50 | < 4.40 |  |
| CN(CC(=O)O)c1cc(Cn2cc(C(=O)NCCOc3cccc(Cl)c3)c(N)n2)ccn1 [Example 67, ({4-[(3-amino-4-{[2-(3-chlorophenoxy)ethyl]carbamoyl}pyrazol-1-yl)methyl]pyridin-2-yl}(methyl)amino)acetic acid] | < 5.00 | < 4.40 |  |
| Cc1nc2cc(Cn3cc(C(=O)NCCOc4cccc(Cl)c4)c(N)n3)ccc2n1C [Example 95, 3-amino-N-[2-(3-chlorophenoxy)ethyl]-1-[(1,2-dimethyl-1,3-benzodiazol-5-yl)methyl]pyrazole-4-carboxamide] | 5.72 | < 4.40 |  |
| Nc1nn(Cc2cccc(Cl)n2)cc1C(=O)NCCOc1cccc(Cl)c1 [Example 81, 3-amino-N-[2-(3-chlorophenoxy)ethyl]-1-[(6-chloropyridin-2-yl)methyl]pyrazole-4-carboxamide] | < 5.00 | < 4.40 |  |
| CNC(=O)c1cccc(Cn2cc(C(=O)NCCOc3cccc(Cl)c3)c(N)n2)c1 [Example 64, 3-amino-N-[2-(3-chlorophenoxy)ethyl]-1-{[3-(methylcarbamoyl)phenyl]methyl}pyrazole-4-carboxamide] | < 5.00 | < 4.40 |  |
| Nc1nn(Cc2ccc(C(=O)N3CCCCC3)cc2)cc1C(=O)NCCOc1cccc(Cl)c1 [Example 60, 3-amino-N-[2-(3-chlorophenoxy)ethyl]-1-({4-[(piperidin-1-yl)carbonyl]phenyl}methyl)pyrazole-4-carboxamide] | < 5.00 | < 4.40 |  |
| Nc1nn(Cc2ccc(N3CCCC3=O)nc2)cc1C(=O)NCCOc1cccc(Cl)c1 [Example 96, 3-amino-N-[2-(3-chlorophenoxy)ethyl]-1-{[6-(2-oxopyrrolidin-1-yl)pyridin-3-yl]methyl}pyrazole-4-carboxamide] | 5.65 | < 4.40 |  |
| N#Cc1nn(Cc2ccc(Cn3ccccc3=O)cc2)cc1C(=O)NCCOc1cccc(Cl)c1 [Example 38, N-[2-(3-chlorophenoxy)ethyl]-3-cyano-1-({4-[(2-oxopyridin-1-yl)methyl]phenyl}methyl)pyrazole-4-carboxamide] | 8.19 | < 4.40 |  |
| CC(CNC(=O)c1cn(Cc2ccc(Cn3ccccc3=O)cc2)nc1N)Oc1cccc(Cl)c1 (racemic) [Example 118, 3-amino-N-[(2R/S)-2-(3-chlorophenoxy)propyl]-1-({4-[(2-oxopyridin-1-yl)methyl]phenyl}methyl)pyrazole-4-carboxamide] | 7.88 | < 4.40 |  |
| Nc1nn(Cc2ccc(Cn3cc(F)ccc3=O)cc2)cc1C(=O)NCCOc1cccc(Cl)c1 [Example 100, 3-amino-N-[2-(3-chlorophenoxy)ethyl]-1-({4-[(5-fluoro-2-oxopyridin-1-yl)methyl]phenyl}methyl)pyrazole-4-carboxamide] | 8.21 | < 4.40 |  |
| COCc1nn(Cc2ccc(Cn3ccccc3=O)cc2)cc1C(=O)NCCOc1cc(Cl)cnn1 [Example 46, N-{2-[(5-chloropyridazin-3-yl)oxy]ethyl}-3-(methoxymethyl)-1-({4-[(2-oxopyridin-1-yl)methyl]phenyl}methyl)pyrazole-4-carboxamide] | < 5.00 | < 5.00 |  |
